The results in this text go back to patent publication US10189796B2, “[4-(1,3,3-trimethyl-2-oxo-3,4-dihydro-1H-quinoxalin-7-yl)phenoxy]ethyloxy compound or salt thereof” (SANTEN PHARMACEUTICAL CO., LTD., priority 2015, dated 2019).

Assay [1] relates to VEGF-induced retinal elevated vascular permeability model of rabbits. The experiment in a line: Retinal vascular permeability model evaluation test. The format is in vivo, rabbit. The conditions noted are these: 2% 50 μL/base agent A, intravitreal once. The protocol: In order to evaluate the inhibitory effect of the present compounds on VEGF-induced retinal vascular permeability, the inhibitory effect of the present compound on retinal vascular permeability in a VEGF-induced retinal elevated vascular permeability model of rabbits was evaluated. Incidentally, this effect was evaluated by calculating a leaked amount of the fluorescent dye of the base agent administered group (non-induced group), a leaked amount of the fluorescent dye of the base agent administered group (control group) and a leaked amount of the fluorescent dye of the test compound administered group.
To the test compound was added 0.01% Polysorbate 80/0.5% sodium carboxymethyl cellulose/PBS (hereinafter referred to as “base agent A”.), whereby 2% (W/V) or 8% (W/V) of the test compound suspension was prepared. Or else, to the test compound was added PEG400 (hereinafter referred to as “base agent B”.), whereby 6% (W/W) of the test compound solution was prepared.
VEGF solution: humanVEGF165 was dissolved in PBS to prepare 50 μg/mL of VEGF solution.
• 1) A mixed solution (1 mL/kg) of 5% ketamine hydrochloride injection solution and 2% xylazine hydrochloride injection solution with the ratio of 7:1 was intramuscularly administered to rabbits (Dutch male rabbits), and the rabbits were anesthetized. • 2) Tropicamide-phenylephrine hydrochloride ophthalmic solution (trade name: Midlin P) was eye dropped to maintain pupillary mydriasis, and then, the VEGF solution was intravitreally administered. Incidentally, PBS was intravitreally administered to the base agent administration group (non-induced group). • 3) Fluorescein was intravenously administered 2 days after intravitreal administration of VEGF. Two hours after the intravenous administration of fluorescein, an amount of the leaked fluorescent dye in the vitreous body was measured by using a fluorophotometer. (Test Method) • 1) One week before or 4 weeks before VEGF-induction, 50 μL of the test compound suspension (prepared by the base agent A) was intravitreally administered once, or 5 μL of the test compound solution (prepared by the base agent B) was intravitreally administered once. Incidentally, in the base agent administered group (non-induced group) and the base agent administered group (control group), the base agent A was used in place of the test compound suspension, or the base agent B was used in place of the test compound solution. • 2) Inhibition ratio of elevated retinal vascular permeability was calculated according to the following calculation formula. (Calculation Formula) Inhibitory ratio (%) on elevated retinal vascular permeability of the test compound administered group=100×{1−(average value of a leaked fluorescent dye amount in the test compound administered group−average value of a leaked fluorescent dye amount in the base agent administered group (non-induced group))/(average value of a leaked fluorescent dye amount in the base agent administered group (control group)−average value of a leaked fluorescent dye amount of the base agent administered group (non-induced group))}

The test system of assay [2] is ovalbumin actively sensitized allergic conjunctivitis model of rabbits. The experiment in a line: Allergic conjunctivitis model evaluation test. In kind it is in vivo, rabbit. The conditions noted are these: eye drop 50 μL four times a day for 4 days plus once, 0.5 hour after challenge. The method, then:
In order to evaluate an anti-allergic action of the present compounds on allergic conjunctivitis, an inhibitory effect on hyperemia in an ovalbumin actively sensitized allergic conjunctivitis model of rabbits was investigated. Incidentally, this effect was evaluated by calculating an inhibitory ratio from the score of the base agent administered group (control group) and the score of the test compound administered group.
A base agent containing a general additive(s) was added to the test compound to prepare test compound suspensions with 1% (WN) and 3% (W/V).
By using male JW rabbits, ovalbumin (200 μg/mL/physiological saline solution) adsorbed on aluminum hydroxide gel was injected 200 μL per eye into bulbar conjunctiva of both eyes of rabbits, respectively, to perform active sensitization.
After 14 days from sensitization or later, the test compound suspension was eye-dropped four times a day for 4 days, and then, at the next day, it was eye-dropped (instillation dose: 50 μL/time) once to both eyes. Incidentally, the base agent was similarly eye-dropped to the base agent administered group (control group).
One hour after the final eye dropping of the test compound suspension, a physiological saline solution containing 0.02% (W/V) of ovalbumin was administered from rabbit ear vein at a dose of 1.5 mL per 1 kg of rabbit to induce allergic conjunctivitis.
After 0.5 hour of the challenge, the degree of hyperemia symptoms of both ocular conjunctiva of rabbits was evaluated according to the following criteria, and the average value of the total of these scores was calculated. […]

The test system of assay [3] is exorbital lacrimal gland-removed rat dry eye model. Nature of the assay: Dry eye syndrome (dry eye) model evaluation test. The format is in vivo. The conditions noted are these: eye drop 5 μL four times a day. The method, then:
In order to evaluate the treatment effect of the present compounds on corneal disorder accompanied by dry eye syndrome (dry eye), a treatment effect on corneal disorder in an exorbital lacrimal gland-removed rat dry eye model was investigated. This model was prepared in accordance with the method of Fujihara, et al. (Invest. Ophthalmol. Vis. Sci., 42(1): 96-100 (2001)). Incidentally, this effect was scored according to the method of Murakami et al. (New Ophthalmologist 21(1): 87-90 (2004)), the extent of corneal disorder was scored and the improvement ratio was calculated from the corneal disorder score of the base agent administered group (control group), the corneal disorder score of the test compound administered group and the corneal disorder score of the normal rat.
A base agent containing a general additive(s) was added to the test compound to prepare test compound suspensions with 0.03% (W/V) and 0.1% (W/V). In addition, a base agent was added to the commercially available drug A to prepare a diluted solution with 0.05% (V/V).
• 1) By using male SD rats, somnopentyl was administered to the rats to apply them general anesthesia, exorbital lacrimal glands were removed, and corneal disorder was induced over 8 weeks thereafter. • 2) The test compound suspension was eye-dropped (instillation dose: 5 μL/time) to both eyes four times a day for 14 days. Incidentally, the base agent was similarly eye-dropped to the administered group (control group), and the commercially available drug A and its diluted solution were similarly eye-dropped. • 3) Fourteen days after the start of eye dropping, the cornea was stained with fluorescein. For each of the upper part, the middle part and the lower part of the cornea, scores of the degree of staining with fluorescein were determined according to the following criteria, and an average value of the total of the scores was calculated. Incidentally, 0.5 was set as an intermediate value between each score of 0, 1, 2 and 3. <<Judgement Standard>>
1: Dyeing is sparse, and the dyed portions of each dot are separated
2: Dyeing is a middle degree and part of the dotted dyed portions is adjacent
3: Dyeing is dense, and the dyed portions of each point are almost adjacent
(Calculation Formula) Corneal disorder improvement ratio (%) of the test compound administered group=(Ao−Ax)/(Ao−An)×100 • Ao: Average value of corneal disorder score of the base agent administered group (control group) • Ax: Average value of corneal disorder score of the test compound administered group • An: Average value of corneal disorder score of normal rat (Test Result and Consideration)

Assay [4] shares this test system. Nature of the assay: Dry eye syndrome (dry eye) model evaluation test. The format is in vivo. Particulars: eye drop 5 μL four times a day. This is another data set of the same source.

In the case of `COc1ccc(-c2ccc3c(c2COc2cc(F)ccc2C)N(C)C(=O)C(C)(C)N3)c(OC)c1` [Control compound E, 7-(2,4-dimethoxyphenyl)-8-(5-fluoro-2-methyl-phenoxymethyl)-1,3,3-trimethyl-3,4-dihydro-1H-quinoxalin-2-one, reference compound], the “Inhibitory ratio (%) on elevated vascular permeability” value in assay [1] (1 week before VEGF induction) was found to be 47%.

Take `COc1cc(OC[C@@H](O)CC#N)ccc1-c1ccc2c(c1COc1cc(F)ccc1C)N(C)C(=O)C(C)(C)N2` [Compound 5-2, (S)-7-[4-(3-cyano-2-hydroxypropyl)oxy-2-methoxyphenyl]-8-(5-fluoro-2-methyl-phenoxymethyl)-1,3,3-trimethyl-3,4-dihydro-1H-quinoxalin-2-one]: the results for the “Inhibitory ratio (%) on elevated vascular permeability” value in assay [1] (1 week before VEGF induction) and in assay [1] (4 weeks before VEGF induction) were 96% and 91%, respectively. In addition, the “Eye congestion inhibitory ratio (%)” value in assay [2] (3% suspension) worked out at 35%.

Regarding `COc1cc(OC[C@H](C)OC(=O)CN(C)C)ccc1-c1ccc2c(c1COc1cc(F)ccc1C)N(C)C(=O)C(C)(C)N2` [Compound 11-1, (S)-7-[4-[2-(N,N-dimethylaminoacetoxy)propyl]oxy-2-methoxyphenyl]-8-(5-fluoro-2-methylphenoxymethyl)-1,3,3-trimethyl-3,4-dihydro-1H-quinoxalin-2-one], the “Corneal disorder improvement ratio (%) After 14 days eye dropping” value in assay [3] (0.03%) was 33%; in assay [3] (0.1%) it was 64%. Moreover, the “Eye congestion inhibitory ratio (%)” value in assay [2] (1% suspension) came to 44%. The “Corneal disorder improvement ratio (%) After 7 days eye dropping” value in assay [4] (0.03%) worked out at 35%; in assay [4] (0.1%), 44%.

For `CCCC(=O)Oc1ccc(-c2ccc3c(c2COc2cc(F)ccc2C)N(C)C(=O)C(C)(C)N3)c(OC)c1` [Control compound D, 7-(4-butyryloxy-2-methoxyphenyl)-8-(5-fluoro-2-methylphenoxymethyl)-1,3,3-trimethyl-3,4-dihydro-1H-quinoxalin-2-one, reference compound], the “Inhibitory ratio (%) on elevated vascular permeability” value in assay [1] (4 weeks before VEGF induction) is 38%.
